Results reported in patent US10052306B2 (LUC THERAPEUTICS, INC., priority 2013, dated 2018).
Where two headings read alike, the source gives them in different places. Values belong to the compound of their own block, whether it stands above or below them.

Experiments:
[1] = biological target: NR1/NR2B (Homo sapiens (Human), UniProt Q05586+Q13224); assay: Cell assay: FDSS Ca2+ influx inhibition in HEK293 cells expressing NR1/NR2B; settings: Binned Activity;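 also: Fluo-8 Ca2+ signal read on Hamamatsu FDSS 6000 after glutamate, glycine and Ca2+ challenge following 10 min compound preincubation, end/baseline fluorescence ratio compared with MK801 control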
Procedure: (§1) Cell Culture and plating: HEK293 cells expressing NR1/NR2B (Chantest, Cleveland, Ohio) were grown to 70-80% confluency as an adherent monolayer in standard tissue culture flasks at 37° C., 5% CO2 per supplier's instructions. NR2B expression was induced by incubation with 0.3-0.4 μg/ml tetracycline in the presence of 4 mM ARL-15896 for 18-24 hours under the same growth conditions, then transferred to 30° C. for another 3-5 hours.
(§2) After induction, cell culture medium was removed and cells were rinsed once with Ca^2+ and Mg^2+-free Dulbecco's phosphate buffered saline. Cells were then removed from the flask using TrypLE™ Express (Life Technologies) according to the manufacturer's instructions and collected to 50 ml centrifuge tubes. Following two washes in Ca^2+/Mg^2+-free HBSS with 20 mM HEPES (HHnoCa), cells were counted and viability assessed using trypan blue. To load cells with Ca^2+-sensitive dye, they were resuspended in fluo-8 plus Component B (AAT Bioquest Products) diluted in HHnoCa and incubated 15 minutes at 37° C., followed by 30 minutes at room temp (in dark). Cells were then washed and resuspended in HHnoCa to remove extracellular dye and plated in 384-well plates (Falcon, uncoated) at 20,000-30,000 cells/well in a final volume of 25 μl/well.
(§3) FDSS Assay: To each well of the plate, 10 μL test compound, control (MK801) or HHnoCa buffer was added to a final concentration of 10 μM with a final concentration of DMSO of 0.1%. Following 10 minutes pre-incubation in the dark, plates are loaded onto the Hamamatsu FDSS 6000. After collecting baseline fluorescence images, 3 μM glutamate, 3 glycine, and 1 mM Ca^2+ in HHnoCa buffer is added to each well, and Ca^2+ is recorded for 3 minutes. Data were processed by computing ratio of fluorescence at the end of data collection to baseline fluorescence to assess degree of Ca′ influx inhibition relative to that observed in MK801.

[2] = biological target: NR1/NR2B (Homo sapiens (Human), UniProt Q13224); assay: as above; settings: read-out: NR2B NAM IC50
Procedure: as §1, §2, §3

[3] = HEK293 cells expressing NR1/NR2B, Ca2+ influx, binned NR2B NAM IC50
[4] = HEK293 cells expressing NR1/NR2B, Ca2+ influx

Chain of NR1/NR2B (Homo sapiens (Human), UniProt Q05586+Q13224) (Q13224 27-1484, other chains not shown): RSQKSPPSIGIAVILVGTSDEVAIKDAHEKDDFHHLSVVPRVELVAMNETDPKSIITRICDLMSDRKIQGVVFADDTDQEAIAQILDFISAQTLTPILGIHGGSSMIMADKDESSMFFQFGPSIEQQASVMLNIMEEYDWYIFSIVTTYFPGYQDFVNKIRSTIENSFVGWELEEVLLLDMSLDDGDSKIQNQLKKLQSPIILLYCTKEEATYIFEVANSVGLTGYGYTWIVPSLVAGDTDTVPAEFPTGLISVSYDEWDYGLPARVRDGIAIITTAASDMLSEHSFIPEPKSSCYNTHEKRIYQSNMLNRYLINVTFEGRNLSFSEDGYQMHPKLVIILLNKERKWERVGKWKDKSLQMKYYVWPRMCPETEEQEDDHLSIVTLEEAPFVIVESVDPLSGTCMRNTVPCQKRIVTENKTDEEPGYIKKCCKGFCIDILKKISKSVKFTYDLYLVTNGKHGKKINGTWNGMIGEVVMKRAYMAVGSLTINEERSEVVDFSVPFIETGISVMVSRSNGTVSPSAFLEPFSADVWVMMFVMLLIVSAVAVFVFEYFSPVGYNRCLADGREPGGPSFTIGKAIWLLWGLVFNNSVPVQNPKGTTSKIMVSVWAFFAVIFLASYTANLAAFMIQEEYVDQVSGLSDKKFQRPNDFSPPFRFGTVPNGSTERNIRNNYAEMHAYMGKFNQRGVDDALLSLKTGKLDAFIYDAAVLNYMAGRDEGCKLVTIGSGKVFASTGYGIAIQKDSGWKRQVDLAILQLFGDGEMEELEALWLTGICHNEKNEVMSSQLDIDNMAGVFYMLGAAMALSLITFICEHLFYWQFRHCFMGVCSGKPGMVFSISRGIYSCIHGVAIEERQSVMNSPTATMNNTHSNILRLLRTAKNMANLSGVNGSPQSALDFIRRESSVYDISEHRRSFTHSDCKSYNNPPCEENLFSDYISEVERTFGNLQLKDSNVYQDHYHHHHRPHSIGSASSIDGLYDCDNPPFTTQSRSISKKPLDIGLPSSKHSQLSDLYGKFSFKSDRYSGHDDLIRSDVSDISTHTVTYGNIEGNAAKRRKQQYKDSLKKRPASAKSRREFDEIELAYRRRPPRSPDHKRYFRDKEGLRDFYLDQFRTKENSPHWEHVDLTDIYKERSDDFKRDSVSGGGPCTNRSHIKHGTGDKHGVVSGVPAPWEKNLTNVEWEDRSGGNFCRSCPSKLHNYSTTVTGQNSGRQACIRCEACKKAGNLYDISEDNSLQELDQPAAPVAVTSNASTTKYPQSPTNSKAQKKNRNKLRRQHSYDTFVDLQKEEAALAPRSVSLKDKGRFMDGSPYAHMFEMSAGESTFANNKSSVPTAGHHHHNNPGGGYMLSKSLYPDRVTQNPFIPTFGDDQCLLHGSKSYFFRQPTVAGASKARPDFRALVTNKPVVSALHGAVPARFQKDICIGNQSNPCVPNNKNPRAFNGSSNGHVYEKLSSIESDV
Chain of NR1/NR2B (Homo sapiens (Human), UniProt Q13224) (Q13224 27-1484, other chains not shown): as above

SMILES: CC(C)(C)c1ccc([C@]2(O)C[C@H]3CN(C(=O)Nc4ccccc4)C[C@H]3C2)cc1 [Example 54]
IC50 [1, 3]: > 10 µM | IC50 [2, 4]: 10 µM

SMILES: CC(C(=O)c1ccc(O)cc1)N1C[C@H]2C[C@@H](CCc3ccccc3)C[C@H]2C1 (stereo partly drawn) [Example 325, 1-(4-hydroxyphenyl)-2-((3aR,5r,6aS)-5-phenethylhexa-hydrocyclo-penta[c]pyrrol-2(1H)-yl)propan-1-one]
IC50 [1]: 0.1 to 1 µM | IC50 [2]: 0.192 µM

SMILES: Cc1ccccc1[C@]1(O)C[C@H]2CN(C(=O)Nc3ccc(Cl)c(C(F)(F)F)c3)C[C@H]2C1 [Example 24, N-[4-chloro-3-(trifluoromethyl)phenyl]-5-hydroxy-5-(2-methylphenyl)-octahydrocyclopenta[c] pyrrole-2-carboxamide]
IC50 [1, 3]: > 10 µM | IC50 [2, 4]: 10 µM

SMILES: COc1ccc(C)cc1NC(=O)N1C[C@@H]2C[C@@](O)(Cc3ccccc3)C[C@@H]2C1 [Example 124, (3aR,5r,6aS)-5-benzyl-5-hydroxy-N-(2-methoxy-5-methylphenyl)hexahydro-cyclopenta[c]pyrrole-2(1H)-carboxamide]
IC50 [1, 3]: > 10 µM | IC50 [2, 4]: 10 µM

SMILES: O=C(Nc1cccc(Cl)c1)N1C[C@@H]2C[C@@](O)(Cc3ccccc3)C[C@@H]2C1 [Example 118, (3aR,5r,6aS)-5-benzyl-N-(3-chlorophenyl)-5-hydroxyhexahydrocyclo-penta[c]pyrrole-2(1H)-carboxamide]
IC50 [1, 3]: > 10 µM | IC50 [2, 4]: 10 µM

SMILES: O=C(CN1C[C@@H]2C[C@@](O)(c3ccccc3)C[C@@H]2C1)c1cccc(F)c1 [Example 61, 1-(3-fluorophenyl)-2-{5-hydroxy-5-phenyl-octahydrocyclopenta[c]pyrrol-2-yl}ethan-1-one]
IC50 [1, 3]: > 10 µM | IC50 [2, 4]: 10 µM

SMILES: O=C(CN1C[C@@H]2C[C@@](O)(Cc3ccccc3)C[C@@H]2C1)c1ccc(=O)[nH]n1 [Example 157, 6-(2-((3aR,5r,6aS)-5-benzyl-5-hydroxyhexahydrocyclo-penta[c]pyrrol-2(1H)-yl)acetyl)pyridazin-3(2H)-one]
IC50 [1, 3]: > 10 µM | IC50 [2, 4]: 10 µM

SMILES: COc1cccc([C@]2(O)C[C@H]3CN(CC(=O)c4cccc(F)c4)C[C@H]3C2)c1 [Example 62, 1-(3-fluorophenyl)-2-[5-hydroxy-5-(3-methoxyphenyl)-octahydrocyclopenta[c]pyrrol-2-yl]ethan-1-one]
IC50 [1, 3]: > 10 µM | IC50 [2, 4]: 10 µM

SMILES: O=C(CN1C[C@@H]2C[C@@](O)(Cc3ccccc3)C[C@@H]2C1)c1cnc(O)cn1 [Example 187, 2-((3aR,5r,6aS)-5-benzyl-5-hydroxyhexahydrocyclo-penta[c]pyrrol-2(1H)-yl)-1-(5-hydroxypyrazin-2-yl)ethanone]
IC50 [1, 3]: > 10 µM | IC50 [2, 4]: 10 µM

SMILES: O=C(CCN1C[C@@H]2C[C@@](O)(c3ccccc3)C[C@@H]2C1)c1ccc(O)cc1 [Example 97, 3-(5-hydroxy-5-phenylhexahydrocyclo-penta[c]pyrrol-2(1H)-yl)-1-(4-hydroxyphenyl)propan-1-one]
IC50 [1, 3]: > 10 µM | IC50 [2, 4]: 10 µM

SMILES: COc1ccc(C)cc1NC(=O)N1C[C@@H]2C[C@@](O)(c3ccccc3)C[C@@H]2C1 [Example 27, 5-hydroxy-N-(2-methoxy-5-methylphenyl)-5-phenyl-octahydrocyclopenta[c] pyrrole-2-carboxamide]
IC50 [1]: > 10 µM | IC50 [2]: 10 µM

SMILES: COc1ccc(NC(=O)N2C[C@H]3C[C@@H](c4ccccc4)C[C@H]3C2)cc1 [Example 99, 2 N-(4-methoxyphenyl)-5-phenylhexahydrocyclo-penta[c]pyrrole-2(1H)-carboxamide]
IC50 [1, 3]: > 10 µM | IC50 [2, 4]: 10 µM

SMILES: Oc1ccc([C@H](O)CN2C[C@@H]3C[C@](O)(Cc4ccccc4)C[C@@H]3C2)cc1 [Example 292, (3aR,5S,6aS)-5-benzyl-2-((S)-2-hydroxy-2-(4-hydroxyphenyl)ethyl) octahydrocyclopenta [c]pyrrol-5-ol]
IC50 [1, 3]: 1 to 10 µM | IC50 [2, 4]: 4.71 µM

SMILES: Cc1ccccc1[C@]1(O)C[C@H]2CN(C(=O)Nc3ccccc3)C[C@H]2C1 [Example 30, 5-hydroxy-5-(2-methylphenyl)-N-phenyl-octahydrocyclopenta[c] pyrrole-2-carboxamide]
IC50 [1]: > 10 µM | IC50 [2]: 10 µM

SMILES: COc1cccc(C[C@]2(O)C[C@H]3CN(CC(=O)c4ccc(O)cn4)C[C@H]3C2)c1 [Example 193, 2-((3aR,5r,6aS)-5-hydroxy-5-(3-meth-oxybenzyl)hexahydro-cyclopenta[c]pyrrol-2(1H)-yl)-1-(5-hydroxypyridin-2-yl)ethanone]
IC50 [1, 3]: > 10 µM | IC50 [2, 4]: 10 µM

SMILES: O=C(CN1C[C@@H]2C[C@@](O)(Cc3ccc(F)cc3)C[C@@H]2C1)c1ccc(O)cc1 [Example 134, 2-((3aR,5r,6aS)-5-(4-fluorobenzyl)-5-hydroxyhexahydrocyclo-penta[c]pyrrol-2(1H)-yl)-1-(4-hydroxyphenyl)ethanone]
IC50 [1, 3]: < 0.1 µM | IC50 [2, 4]: 0.0432 µM

SMILES: CC(C)(C)c1ccc([C@]2(O)C[C@H]3CN(C(=O)Nc4ccc(Cl)c(C(F)(F)F)c4)C[C@H]3C2)cc1 [Example 53]
IC50 [1, 3]: > 10 µM | IC50 [2, 4]: 10 µM

SMILES: O=C(Nc1ccccc1)N1C[C@@H]2C[C@@](O)(Cc3ccccc3)C[C@@H]2C1 [Example 122, (3aR,5r,6aS)-5-benzyl-5-hydroxy-N-phenylhexahydrocyclo-penta[c]pyrrole-2(1H)-carboxamide]
IC50 [1, 3]: > 10 µM | IC50 [2, 4]: 10 µM

SMILES: Cc1ccccc1[C@]1(O)C[C@H]2CN(c3ccccn3)C[C@H]2C1 [Example 82, 5-(2-methylphenyl)-2-(pyridin-2-yl)-octahydrocyclopenta[c] pyrrol-5-ol]
IC50 [1, 3]: > 10 µM | IC50 [2, 4]: 10 µM

SMILES: Oc1ccc([C@H](O)CN2C[C@@H]3C[C@@](O)(Cc4ccccc4)C[C@@H]3C2)cc1 [Example 137, (3aR,5S,6aS)-5-benzyl-2-((S)-2-hydroxy-2-(4-hydroxyphenyl)ethyl)octa-hydrocyclopenta[c]pyrrol-5-ol]
IC50 [1, 3]: < 0.1 µM | IC50 [2, 4]: 0.0204 µM

SMILES: O=C(Nc1cccc(Cl)c1)N1C[C@H]2C[C@@H](c3ccccc3)C[C@H]2C1 [Example 106, N-(3-chlorophenyl)-5-phenyl-octahydrocyclopenta[c] pyrrole-2-carboxamide]
IC50 [1, 3]: > 10 µM | IC50 [2, 4]: 10 µM

Now from value to compound:

IC50 [1, 3]: > 10 µM | IC50 [2, 4]: 10 µM
SMILES: O=C(CN1C[C@@H]2C[C@@](O)(Cc3ccccc3)C[C@@H]2C1)c1ccc(-c2cccc(F)c2)cc1 [Example 261, 2-((3aR,5r,6aS)-5-benzyl-5-hydroxyhexahydrocyclo-penta[c]pyrrol-2(1H)-yl)-1-(3′-fluoro-[1,1′-biphenyl]-4-yl)ethanone]

IC50 [1, 3]: > 10 µM | IC50 [2, 4]: 10 µM
SMILES: O=C(CN1C[C@@H]2C[C@@](O)(Cc3ccccc3)C[C@@H]2C1)c1ncc(O)cn1 [Example 202, 2-[(3aR,5R,6aS)-5-benzyl-5-hydroxy-octahydrocyclopenta[c]pyrrol-2-yl]-1-(5-hydroxypyrimidin-2-yl)ethan-1-one]

IC50 [1, 3]: < 0.1 µM | IC50 [2, 4]: 0.0517 µM
SMILES: O=C(CN1C[C@H]2CC(Cc3ccccc3)C[C@H]2C1)c1ccc(O)cc1 (stereo partly drawn) [Example 295, 2-((3aR,6aS)-5-benzylhexahydrocyclo-penta[c]pyrrol-2(1H)-yl)-1-(4-hydroxyphenyl)ethanone]

IC50 [1, 3]: > 10 µM | IC50 [2, 4]: 10 µM
SMILES: O=C(CN1C[C@@H]2C[C@@](O)(Cc3ccccc3)C[C@@H]2C1)c1cccc(-c2cccnc2)c1 [Example 272, 2-((3aR,5r,6aS)-5-benzyl-5-hydroxyhexahydrocyclo-penta[c]pyrrol-2(1H)-yl)-1-(3-(pyridin-3-yl)phenyl)ethanone]

IC50 [1, 3]: < 0.1 µM | IC50 [2, 4]: 0.0981 µM
SMILES: COc1cccc(C[C@]2(O)C[C@H]3CN(CC(=O)c4ccc(O)cc4)C[C@H]3C2)c1 [Example 194, 2-((3aR,5r,6aS)-5-hydroxy-5-(3-meth-oxybenzyl)hexahydro-cyclopenta[c]pyrrol-2(1H)-yl)-1-(4-hydroxyphenyl)ethanone]

IC50 [1, 3]: < 0.1 µM | IC50 [2, 4]: 0.0853 µM
SMILES: O=C(CN1C[C@@H]2C[C@@](O)(Cc3ccc(F)c(F)c3)C[C@@H]2C1)c1ccc(O)cc1 [Example 252, 2-((3aR,5r,6aS)-5-(3,4-difluorobenzyl)-5-hydroxyhexahydrocyclo-penta[c]pyrrol-2(1H)-yl)-1-(4-hydroxyphenyl)ethanone]

IC50 [1, 3]: 0.1 to 1 µM | IC50 [2, 4]: 0.118 µM
SMILES: O=C(CN1C[C@@H]2C[C@@](O)(Cc3c(F)cccc3F)C[C@@H]2C1)c1ccc(O)cc1 [Example 241, 2-[(3aR,5R,6aS)-5-[(2,6-difluorophenyl)methyl]-5-hydroxy-octahydrocyclopenta[c]pyrrol-2-yl]-1-(4-hydroxyphenyl)ethan-1-one]

IC50 [1, 3]: 1 to 10 µM | IC50 [2, 4]: 1.99 µM
SMILES: O=C(CN1C[C@@H]2C[C@@](O)(Cc3ccccc3Cl)C[C@@H]2C1)c1ccc(O)cn1 [Example 234, 2-((3aR,5r,6aS)-5-(2-chlorobenzyl)-5-hydroxyhexahydrocyclo-penta[c]pyrrol-2(1H)-yl)-1(5-hydroxypyridin-2-yl)ethanone]

IC50 [1, 3]: 1 to 10 µM | IC50 [2, 4]: 3.06 µM
SMILES: O=C(CN1C[C@@H]2C[C@@](O)(Cc3cccc(F)c3F)C[C@@H]2C1)c1ccc(O)cn1 [Example 247, 2-((3aR,5r,6aS)-5-(2,3-difluorobenzyl)-5-hydroxyhexahydrocyclo-penta[c]pyrrol-2(1H)-yl)-1-(5-hydroxypyridin-2-yl)ethanone]

IC50 [1, 3]: 0.1 to 1 µM | IC50 [2, 4]: 0.346 µM
SMILES: O=C(CN1C[C@@H]2C[C@@](O)(CC3CCCCC3)C[C@@H]2C1)c1ccc(O)cc1 [Example 205, 2-[(3aR,5R,6aS)-5-(cyclohexylmethyl)-5-hydroxy-octahydrocyclopenta[c]pyrrol-2-yl]-1-(4-hydroxyphenyl)ethan-1-one]
